What was measured:
[1] = test system: Escherichia coli ARLG 2829; assay: MIC test of compounds in combination with antibiotics, Escherichia coli ARLG 2829; settings: Escherichia coli ARLG-2829 NDM-5, OXA-1
Experimental: Strain preparation: the strains to be tested were streaked from glycerol tube at −80° C. onto Mueller Hinton II Agar plates. The plates were then placed in a 37° C. incubator and cultured for 18-24 hours.
Media preparation: CAMHB (Mueller Hinton II Broth): 22 g of powder was dissolved in 1 L of purified water and sterilized at 121° C. for 10 min for use. Saline: 8.5 g NaCl was dissolved in 1 L of pure water and sterilized at 121° C. for 30 min for use.
Preparation of compound and antibiotic stock solutions: the compound and antibiotic were dissolved in DMSO or water to 12.8 mg/mL.
(§15) 2-Fold gradient dilution of antibiotics: 300 μL of CAMHVIB medium was added to columns 2-12 of a 96-deep well plate. In column 1, 24 μL of antibiotic stock solution and 576 µL of CAMHB medium were added and mixed well, with a concentration of 512 μg/mL. 300 µL of antibiotic solution was transferred from the column 1 to the second column and mixed well. The process was repeated until column 11, and the column 12 was a blank control.
(§16) Dilution of combined compounds: the compound was diluted 400-fold to 32 μg/ml with CAMHB medium.
(§17) Working solution aliquoting: 25 μL of antibiotics was aliquoted into the 96-U bottom plate with a pipette, and 25 μL of combined compound was added to each well. If antibiotics were used alone, 25 μL of CAMHB medium was added.
(§18) Inoculum solution preparation: 5-6 single colonies were selected from the plate and suspended in normal saline. The bacterial suspension was adjusted to 0.2 (i.e., 0.5 McFarland turbidity, with a bacterial concentration was about 1 to 2×10^8 CFU/mL) with a turbidity meter. The bacterial suspension was diluted 100-fold with CAMHB medium for later use.
(§19) Inoculation: 50 μL of inoculum solution was transferred to the above 50 μL compound plate with a pipette.
(§20) Culture: The 96-U bottom plate was placed in an incubator at 37° C. for 18 to 20 h.
After the incubation, bacterial growth was visually observed, and the test plate was photographed and recorded.

CTX-M-15 = biological target: T1, CTX-M-15 (Escherichia coli, UniProt Q9EXV5); assay: Enzyme activity test (FC5 fluorescent substrate), CTX-M-15; format: biochemical; settings: enzyme 45 pM, substrate FC5 50 μM
T1 construct: purchased GenScript Biotech Co., Ltd
Experimental: (§1) Compound stock solution: the compound was prepared as a 50 mM DMSO stock solution. […] After aliquoting, the compound stock solutions were stored at −20° C.
(§2) Preparation and storage of antibiotic substrate stock solution: antibiotic fluorescent substrate FC5 was synthesized internally and prepared as a 2 mM stock solution, which was stored at −20° C. after aliquoting.
(§3) Storage of β-lactamases: each […] was synthesized by GenScript Biotech Co., Ltd., and stored at −80° C. after aliquoting to avoid repeated freezing and thawing.
(§4) Preparation of enzyme activity reaction buffer: SBL buffer: PBS pH 7.4, 0.01% (v/v) Triton X-100; MBL buffer: 50 Mm HEPES in PBS pH 7.2, 1 μM ZnSO4, 1 μg/mL BSA, 0.010% v/v Triton X-100
(§5) a) The compound to be tested and buffer were taken out and warmed to room temperature.
(§6) b) Each compound was diluted with DMSO and buffer to the initial experimental concentration (Table 2), and then the compound was diluted 3-fold for a total of 10 concentrations.
(§7) c) Diluted compounds were added to wells 1 to 20 of a 384-well black plate at 2 replicate wells per concentration, 5 μL per well. 5 µL of DMSO was added to wells 21 to 24.
(§8) d) Each enzyme was diluted to the experimental concentration (Table 2) in SBL and MBL buffers, and finally 35 μL/well was added, with a total of 22 wells. 35 μL buffer was added to wells 23 to 24. Wells 21 to well 22 served as the maximum test values (Max), while wells 23 to 24 were designated as the minimum test values (Min).
(§9) e) The 384-well plate was centrifuged quickly and incubated for 10 minutes at room temperature.
(§10) f) The antibiotic substrate FC5 was diluted in buffer to the experimental concentration of each enzyme (Table 2).
(§11) g) The incubated 384-well plate was taken out and FC-5 was added to wells […]. The 384-well plate was centrifuged rapidly and promptly transferred to a microplate reader for reading.
(§12) h) The fluorescence intensity was measured at 355 nm excitation light/460 nm emission light in the microplate reader, and the fluorescence intensity was measured every three minutes for a total of 10 measurements.
(§13) Initial velocity of enzyme reaction V: Subtract the background reading (Min wells) without enzyme from each fluorescence intensity reading, and then perform on a linear regression analysis on each compound concentration group. The slope is the initial velocity of enzyme reaction (V) at each compound concentration.
(§14) Dose-effect curve and IC50 calculation of compounds: The initial velocity of enzyme reaction under the effect of each concentration of compounds was subjected to nonlinear regression fitting. The IC50 (half-maximal inhibitory concentration) of each compound was calculated using the formula […] (Vi: the initial velocity of enzyme reaction at each compound concentration; V0: initial velocity of enzyme reaction without the compound (Max wells). The software used was Graphpad prism 8.

KPC-2 = biological target: T2, KPC-2 (Klebsiella pneumoniae, UniProt Q9F663); assay: Enzyme activity test (FC5 fluorescent substrate), KPC-2; format: biochemical; settings: enzyme 45 pM, substrate FC5 25 μM
T2 construct: purchased GenScript Biotech Co., Ltd
Experimental: as §1, §2, §3, §4, §5, §6, §7, §8, §9, §10, §11, §12, §13, §14

[2] = test system: Acinetobacter baumannii ARLG-1852 OXA-23; assay: MIC test of compounds in combination with antibiotics, Acinetobacter baumannii ARLG-1852; settings: Acinetobacter baumannii ARLG-1852 OXA-23
Experimental: as §15, §16, §17, §18, §19, §20

VIM-2 = biological target: T3, VIM-2 (Escherichia coli, UniProt Q5U7L7); assay: Enzyme activity test (FC5 fluorescent substrate), VIM-2; format: biochemical; settings: enzyme 25 pM, substrate FC5 20 μM
T3 construct: purchased GenScript Biotech Co., Ltd
Experimental: as §1, §2, §3, §4, §5, §6, §7, §8, §9, §10, §11, §12, §13, §14

IMP-1 = biological target: T4, IMP-1 (Serratia marcescens, UniProt P52699); assay: Enzyme activity test (FC5 fluorescent substrate), IMP-1; format: biochemical; settings: enzyme 20 pM, substrate FC5 15 μM
T4 construct: purchased GenScript Biotech Co., Ltd
Experimental: as §1, §2, §3, §4, §5, §6, §7, §8, §9, §10, §11, §12, §13, §14

T2 sequence (Q9F663 25-293 limits assumed): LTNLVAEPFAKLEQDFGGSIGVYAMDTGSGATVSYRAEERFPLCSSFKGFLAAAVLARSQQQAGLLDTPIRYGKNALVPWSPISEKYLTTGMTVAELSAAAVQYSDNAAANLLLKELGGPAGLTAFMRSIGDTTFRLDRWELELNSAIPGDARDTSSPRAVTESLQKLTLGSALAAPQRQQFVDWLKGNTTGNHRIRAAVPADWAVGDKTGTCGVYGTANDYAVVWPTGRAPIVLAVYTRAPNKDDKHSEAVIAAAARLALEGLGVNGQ
T1 sequence (Q9EXV5 entry or part of it): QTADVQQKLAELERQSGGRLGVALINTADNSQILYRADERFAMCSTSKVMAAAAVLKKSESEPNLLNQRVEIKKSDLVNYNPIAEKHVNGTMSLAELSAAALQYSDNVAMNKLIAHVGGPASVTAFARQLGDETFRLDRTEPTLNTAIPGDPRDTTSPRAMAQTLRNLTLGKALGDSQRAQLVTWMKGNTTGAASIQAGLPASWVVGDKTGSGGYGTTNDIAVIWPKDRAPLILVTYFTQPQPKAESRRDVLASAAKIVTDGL
T4 sequence (P52699 19-246 limits assumed): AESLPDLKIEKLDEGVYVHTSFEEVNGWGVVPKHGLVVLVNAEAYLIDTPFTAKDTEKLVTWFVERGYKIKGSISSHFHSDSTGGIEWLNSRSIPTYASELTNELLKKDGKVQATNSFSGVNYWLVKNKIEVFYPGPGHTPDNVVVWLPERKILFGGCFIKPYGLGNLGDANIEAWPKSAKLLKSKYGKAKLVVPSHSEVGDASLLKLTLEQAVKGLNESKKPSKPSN

NCCNC1CCC(CC(=O)N[C@H]2Cc3cccc(C(=O)O)c3OB2O)CC1 (some centres unmarked) [VNRX-5133, reference compound]
MIC ([1]; Cefepime + compound (8 μg/mL)): 1 µg/mL
MIC ([1]; Meropenem + compound (8 μg/mL)): 1 µg/mL
IC50 (CTX-M-15): 12.4 nM
IC50 (KPC-2): 64.2 nM
MIC ([2]; Cefepime + compound (8 μg/mL)): 32 µg/mL
MIC ([2]; Meropenem + compound (8 μg/mL)): 128 µg/mL
IC50 (VIM-2): 4.4 nM
IC50 (IMP-1): > 10000 nM
